{"source": "patent US20260286306A1", "about": "“Culture Medium, Production Method, and Cell Preparation19155704” (National University Corporation Kumamoto University, priority 2023, published 2026)", "key": {"[1]": {"test_system": "EPCR High cell group (hematopoietic stem cells)", "assay": "ex vivo culture of mouse EPCR High cell group for 4 days, flow cytometry and cell count", "type": "cell-based", "details": "for number of cells compared with the control: 4 days culture, FIG. 7(B); for proportion of EPCR High in hematopoietic stem cells (EPCR High phenotype): flow cytometry", "text": "The expression of c-kit and EPCR in a hematopoietic stem cell fraction (lineage: CD150+, CD48−) isolated from a mouse by using flow cytometry was checked. Among the c-kit-positive and EPCR-positive cells, a cell group of the top 30% of the EPCR-positive cells was defined as an EPCR High cell group, and a cell group of the bottom 30% of the EPCR-positive cells was defined as an EPCR Low cell group (see FIG. 1). Each cell group was transplanted into a recipient mouse, and 20 weeks later, the proportion of cells derived from the transplanted stem cells was examined in the peripheral blood (PB). In addition, at the same time, the proportion of cells derived from the transplanted stem cells was examined in the hematopoietic stem cell fraction (L-ESLAM) in the bone marrow after 20 weeks of the transplantation. The experiment was carried out twice.\nAs shown in FIG. 5(A), α-ketoglutaric acid (αKG), which is an intermediate metabolite of the TCA cycle, is also produced from glutamic acid or the like, and then it is supplied to the TCA cycle. In addition, in the production of a-ketoglutaric acid from glutamic acid, two pathways of a transaminase pathway and a glutamate dehydrogenase pathway are used (see FIG. 5(B)). Therefore, the proportion of EPCR High in hematopoietic stem cells was determined in a case where the EPCR High cell group was cultured for 4 days by adding each of an inhibitor R162 (30 μM) of glutamate dehydrogenase and an inhibitor aminooxyacetic acid (AOA) (50 μM) of transaminase to the culture medium, and in a case where the content of […], which is the source of glutamic acid synthesis, was set to 1/100 (0.02 mM) in FIG. 5(A) (Low Neu.).\nThe above-described mouse EPCR High cell group was cultured for 4 days by adding EGCG (50 μM), which is another glutamate dehydrogenase inhibitor, to a culture medium."}, "[2]": {"test_system": "Human CD34+ bone marrow cells", "assay": "culture of human CD34+ bone marrow cells for 7 days, total cell number and flow cytometry", "type": "cell-based", "details": "R162 30 μM", "experimental": "Human CD34^+ bone marrow cells (10,000 cells) were cultured for 7 days under normal culture conditions or in the presence of a glutamate dehydrogenase inhibitor R162 (30 μM), and then the total number of cells was analyzed. Then, the proportion of hematopoietic stem cells (lineage: CD34+CD38−CD90+cells) was analyzed using a flow cytometer, and from the results, the number of stem cells was estimated. FIG. 13 and FIG. 14 show the results. As shown in FIG. 14(A), it has been confirmed that the total number of cells is not changed by the presence of R162 as compared with the control, whereas as shown in FIG. 14(B), the ratio of stem cells after culturing is increased by the presence of R162.\nThe culture medium used for the ex vivo culture of human CD34+ bone marrow cells is a culture medium obtained by adding, to the RPMI medium, L-Alanin (4.45 mg/L), Zinc Sulfate Heptahydrate (0.432 mg/L), Cupric Sulfate Pentahydrate (0.0013 mg/L), Ferric Nitrate Nonahydrate (0.05 mg/L), Ferrous Sulfate Heptahydrate (0.417 mg/L), Linoleic acid (0.042 mg/L), Hypoxanthine (2.1 mg/L), Putrescine+2HCL (0.081 mg/L), Thioctic Acid (0.105 mg/L), Thymidine (0.365 mg/L), Sodium Pyruvate (55 mg/L), HEPES (1 mM), a penicillin-streptomycin mixed solution (Nacalai Tesque, Inc.: 26253-84) (1/100 capacity), Insulin-Transferrin-Selenium-Ethanolamine (Thermo Fisher Scientific, Inc.: 51500056) (1/100 capacity), and AlbuMAXtm I Lipid-Rich BSA (Thermo Fisher Scientific, Inc.: 11020021) (2%)."}, "recipient mouse": {"test_system": "recipient mouse", "assay": "transplantation of cultured cell groups into a recipient mouse, proportion of donor-derived cells", "type": "in vivo", "experimental": "Mouse EPCR High cells were cultured for 4 days under the normal culture conditions or in the presence of R162, and 50 cells of each of an EPCR High cell group (Control) generated under the normal culture conditions, an EPCR Low cell group (Control), and an EPCR High cell group (R162) amplified in the presence of R162 were aliquoted and then transplanted into a recipient mouse. Then, after 4 weeks and 12 weeks, the proportion of cells derived from donor cells in the peripheral blood was examined.\nFurther, the EPCR High cells were cultured for 4 days under the normal culture conditions and cultured for 4 days in the presence of R162, and the EPCR High cell group generated under the normal culture conditions, the EPCR Low cell group, and the EPCR High cell group (R162) amplified in the presence of R162 were each transplanted into a recipient mouse. Then, 20 weeks later, the proportion of cells derived from donor cells was examined in the peripheral blood and the hematopoietic stem cell fraction in the bone marrow (L-ESLAM (BM))."}}}
{"compound": "NOCC(=O)O", "note": "[AOA, aminooxyacetic acid]", "values": [{"measurement": "number of cells compared with the control", "setting": "[1]; AOA 50 μM", "result": "significantly reduced"}]}
{"compound": "O=C(O[C@@H]1Cc2c(O)cc(O)cc2O[C@@H]1c1cc(O)c(O)c(O)c1)c1cc(O)c(O)c(O)c1", "note": "[EGCG, epigallo catechin-3-gallate]", "values": [{"measurement": "proportion of EPCR High in hematopoietic stem cells (EPCR High phenotype)", "setting": "[1]; EGCG 50 μM in culture medium, 4 days, FIG. 15", "result": "phenotype of EPCR High is maintained"}]}
{"compound": "C=CCc1ccc2c(c1O)C(=O)c1ccccc1C2=O", "note": "[R162, 2-allyl-1-hydroxy-9,10-anthraquinone]", "values": [{"measurement": "total number of cells compared with the control", "setting": "[2]; 7 days, 10,000 cells seeded, FIG. 14(A)", "result": "not changed"}, {"measurement": "ratio of stem cells (CD34+CD38−CD90+ cells) after culturing", "setting": "[2]; 7 days, flow cytometer, FIG. 14(B)", "result": "increased"}, {"measurement": "number of stem cells compared with normal culture conditions", "setting": "[2]; 7 days, estimated from total cell number and stem cell proportion", "result": "number of stem cells is increased"}, {"measurement": "proportion of cells derived from donor cells in the peripheral blood (ability to reconstruct hematopoietic tissue)", "setting": "recipient mouse; 50 EPCR High cells amplified 4 days in the presence of R162, transplanted, 4 weeks and 12 weeks, FIG. 8", "result": "high ability to reconstruct hematopoietic tissue, which is equivalent to the EPCR High cell group (Control)"}, {"measurement": "proportion of cells derived from donor cells in peripheral blood and bone marrow hematopoietic stem cell fraction (L-ESLAM (BM))", "setting": "recipient mouse; EPCR High cells amplified 4 days in the presence of R162, transplanted, 20 weeks, vs EPCR High and EPCR Low (Control), FIG. 12", "result": "high ability to maintain the reconstructed hematopoiesis for a longer period of time"}, {"measurement": "fold induction at 30 µM", "setting": "[1]; Mus musculus, Hematopoietic stem cell, 96 h, culture in the presence of R162 (30 μM), 4 days, read-out: increase in number of cells having the EPCR High phenotype compared with normal culture conditions", "result": "~2"}, {"measurement": "proportion of EPCR High in hematopoietic stem cells (EPCR High phenotype)", "setting": "[1]; R162 30 μM in culture medium, 4 days, FIG. 6/7(A)", "result": "phenotype of EPCR High is maintained"}, {"measurement": "number of cells compared with the control", "setting": "[1]; R162 30 μM", "result": "about the same level as that of the control"}]}
